Laboratory results: US7867522B2, “Method of wound/burn healing using copper-zinc compositions” (JR Chem, LLC, priority 2006, dated 2011)

Columns and labels:
Format in all cases: in vivo, human
[1] = system: pressure ulcer; experiment: topical treatment of pressure ulcers in a diabetic patient
From the text: A diabetic is suffering from a stage I pressure ulcer characterized by non-blanchable erythema on intact skin. A gel composition suitable for treatment of skin containing an effective amount of copper-zinc malonate active ingredient is routinely applied to the stage I pressure ulcer twice daily.
A diabetic is suffering from a stage II pressure ulcer characterized by partial skin loss involving the epidermis, dermis, or both. The lesion is superficial and presents clinically as a shallow center. A liquid composition suitable for treatment of skin containing an effective amount of copper-zinc malonate active ingredient is applied to the shallow center four times a day for 2 months.
A diabetic is suffering from a stage III pressure ulcer characterized by full thickness skin loss involving damage or necrosis of subcutaneous tissue that extends down to, but not through, underlying fascia. The sore presents clinically as a deep crater. A liquid composition suitable for treatment of skin containing an effective amount of one or more copper-zinc malonate active ingredients is applied to the crater four times a day for 1 month.
A diabetic is suffering from a stage IV pressure ulcer characterized by full thickness skin loss with extensive destruction, and tissue necrosis. A liquid composition suitable for treatment of skin containing an effective amount of copper-zinc malonate active ingredient is applied to the dying tissue four times a day for 1 month.

[2] = system: open soars on their feet; experiment: topical treatment of open sores on the feet; conditions: person, composition applied to the wound twice a day for 10 days
From the text: A person is suffering from open soars on their feet. A composition containing copper-zinc malonate is applied to the wound twice a day for 10 days. Healing time is reduced.

[3] = system: bee sting characterized by pain and swelling; experiment: topical treatment of a bee sting; conditions: child; liquid composition containing 0.05% active ingredient, four times a day for 2 days
From the text: A child is suffering from a bee sting characterized by pain and swelling. A liquid composition suitable for treatment of skin containing 0.05% copper-zinc malonate active ingredient is applied to the sting four times a day for 2 days.

[4] = system: 6 inch laceration to their right forearm; experiment: topical treatment of a forearm laceration; conditions: person; emulsion composition applied three times a day for 1 week
From the text: A person is suffering from 6 inch laceration to their right forearm. An emulsion composition suitable for treatment of skin containing an effective amount of copper-zinc malonate active ingredient is applied to their laceration three times a day for 1 week.

[5] = system: third degree burns on their left wrist and stomach; experiment: topical treatment of third degree burns; conditions: person; liquid composition applied four times a day for 1 month
From the text: A person truck accident victim is suffering from third degree burns on their left wrist and stomach. A liquid composition suitable for treatment of skin containing an effective amount of copper-zinc malonate active ingredient is applied to the third degree burn four times a day for 1 month.

[6] = liquid composition applied four times a day for 1 month

## copper-zinc malonate
[1]; gel composition applied twice daily
  stage I pressure ulcer: reduced or eliminated
[1]; [6]
  stage III pressure ulcer: reduced or eliminated
  stage IV pressure ulcer: reduced or eliminated
[1]; liquid composition applied four times a day for 2 months
  stage II pressure ulcer: reduced or eliminated
[2]
  healing time: reduced
[3]
  bee sting: reduced or eliminated
[4]
  healing and time necessary for the wound to close: promotes healing and decreases the time necessary for the wound to close
[5]
  burnt wrist and stomach, healing time: improve, and healing time is reduced
